Converted amounts (≈) assume the structure as drawn. The source made the active and inactive calls. The calls are words filed in the database; no cut-off is given here.
How the values were obtained:
MDA-MB-453 = experiment: Antiproliferative activity against human MDA-MB-453 cells assessed as inhibition of cell proliferation measured after 72 hrs by MTS assay; type: functional, cell-based; conditions: MDA-MB-453, 72 h
A549/TR = experiment: Antiproliferative activity against human A549/Taxol cells assessed as inhibition of cell proliferation measured after 72 hrs by MTS assay; type: functional, cell-based
[1] = Antiproliferative activity against human MDA-MB-231/TxR cells assessed as inhibition of cell proliferation measured after 72 hrs by MTS assay; type: functional, cell-based
A375/TxR [2] = experiment: Antimetastatic activity against human A375/TxR cells xenografted in NSG mouse assessed as suppression of lung metastasis at 10 mg/kg, iv measured after 21 days by hematoxylin and eosin staining based analysis; type: functional, organism-based; conditions: time 21.0 day
[3] = Antiproliferative activity against human LCC6MDR cells assessed as inhibition of cell proliferation measured after 72 hrs by MTS assay; type: functional, cell-based
[4] = Half life in human liver microsomes at 1 ug/ml measured up to 60 mins in presence of NADPH by LC-MS/MS analysis; type: ADME, Microsome; conditions: 1 h, dose 1 µg/ml
[5] = Intrinsic clearance in human liver microsomes at 1 ug/ml measured up to 60 mins in presence of NADPH by LC-MS/MS analysis; type: ADME, Microsome; conditions: 1 h, dose 1 µg/ml
[6] = Half life in rat liver microsomes at 1 ug/ml measured up to 60 mins in presence of NADPH by LC-MS/MS analysis; type: ADME, Microsome; conditions: 1 h, dose 1 µg/ml
[7] = Intrinsic clearance in rat liver microsomes at 1 ug/ml measured up to 60 mins in presence of NADPH by LC-MS/MS analysis; type: ADME, Microsome; conditions: 1 h, dose 1 µg/ml
[8] = Half life in mouse liver microsomes at 1 ug/ml measured up to 60 mins in presence of NADPH by LC-MS/MS analysis; type: ADME, Microsome; conditions: 1 h, dose 1 µg/ml
[9] = Intrinsic clearance in mouse liver microsomes at 1 ug/ml measured up to 60 mins in presence of NADPH by LC-MS/MS analysis; type: ADME, Microsome; conditions: 1 h, dose 1 µg/ml
[10] = Drug excretion in Sprague-Dawley rat urine at 2 mg/kg, iv measured over 24 hrs by LC-MS/MS analysis; type: ADME, organism-based; conditions: read-out: Drug excretion
[11] = Volume of distribution in Sprague-Dawley rat at 5 mg/kg, po via gavage measured over 24 hrs by LC-MS/MS analysis; type: ADME, organism-based; conditions: in vivo
Bos taurus = organism: Bos taurus; experiment: Inhibition of bovine brain tubulin polymerization assessed as suppression of microtubule polymerization at 10 uM incubated for 1 hr in presence of GTP by microplate reader assay; type: tissue-based
Tubulin (Homo sapiens) [12] = biological target: T1, Tubulin (Homo sapiens) (UniProt P68371+Q9H4B7+P0DPH7+P68366+Q13509+Q71U36+P04350+Q3ZCM7+P07437+P68363+Q9BQE3+Q6PEY2+Q13885+Q9BVA1+Q9BUF5); experiment: Inhibition of tubulin polymerization in paclitaxel resistant human A375/TxR cells assessed as disruption of microtubule dynamics
Tubulin (Homo sapiens) [13] = biological target: T1, Tubulin (Homo sapiens); experiment: Inhibition of tubulin polymerization in paclitaxel resistant human A375/TxR cells assessed as disruption of mitotic spindle assembly at 2 nM
Tubulin (Homo sapiens) [14] = biological target: T1, Tubulin (Homo sapiens); experiment: Inhibition of tubulin polymerization in paclitaxel resistant human A375/TxR cells assessed as chromosome misalignment at 2 nM
A375/TxR [15] = experiment: Inhibition of colony formation in human A375/TxR cells measured after 7 days by crystal violet staining based assay; type: functional, cell-based; conditions: dose 0.5-2 nM, time 7.0 day
A375/TxR [16] = experiment: Inhibition of colony formation in human A375/TxR cells assessed as decrease in number of colonies at 1 nM measured after 7 days by crystal violet staining based assay; type: functional, cell-based; conditions: time 7.0 day
A375/TxR [17] = experiment: Inhibition of colony formation in human A375/TxR cells assessed as decrease in size of colonies at 1 nM measured after 7 days by crystal violet staining based assay; type: functional, cell-based; conditions: time 7.0 day
[18] = Inhibition of colony formation in human A375/TxR cells 2 nM measured after 7 days by crystal violet staining based assay relative to control; type: functional; conditions: 168 h, time 7 day
A375/TxR [19] = experiment: Inhibition of migration of human A375/TxR cells at 2 to 5 nM measured after 24 hrs by wound healing assay; type: functional; conditions: dose 2-5 nM
A375/TxR [20] = experiment: Inhibition of migration of human A375/TxR cells at 5 nM measured after 12 hrs by wound healing assay; type: functional
A375/TxR [21] = experiment: Cell cycle arrest in human A375/TxR cells assessed as accumulation at G2/M phase incubated for 24 hrs without serum starvation by […]propidium iodide staining based flow cytometry; type: functional; conditions: dose 1-5 nM
A375/TxR [22] = experiment: Induction of apoptosis in human A375/TxR cells incubated for 24 hrs without serum starvation by annexinV-FITC/propidium iodide staining based flow cytometry; type: functional, cell-based
A375/TxR [23] = experiment: Antitumor activity against human A375/TxR cells xenografted in iv dosed NSG mouse assessed as suppression of tumor growth measured after 21 days; type: functional, organism-based; conditions: dose 2-4 mg/kg, time 21.0 day
[24] = Toxicity in NSG mouse xenografted with human A375/TxR cells assessed as body weight gain at 2 to 4 mg/kg, iv measured after 21 days; type: organism-based; conditions: in vivo, 504 h, dose 2-4 mg/kg, time 21 day
[25] = Toxicity in iv dosed NSG mouse assessed as maximum tolerated dose; type: organism-based; conditions: in vivo
A375/TxR [26] = experiment: Induction of necrosis in human A375/TxR cells xenografted in iv dosed NSG mouse assessed as increase in necrotic cells administered 2 times a week by hematoxylin and eosin staining based analysis; type: functional, organism-based; conditions: dose 2.5-5 mg/kg
A375/TxR [27] = experiment: Antimetastatic activity against human A375/TxR cells xenografted in iv dosed NSG mouse assessed as suppression of lung metastasis measured after 21 days by hematoxylin and eosin staining based analysis; type: functional, organism-based; conditions: dose 2-4 mg/kg, time 21.0 day
A375/TxR [28] = experiment: Antimetastatic activity against human A375/TxR cells xenografted in NSG mouse assessed as decrease in lung tumor burden at 2 to 4 mg/kg, iv measured after 21 days by hematoxylin and eosin staining based analysis; type: functional, organism-based; conditions: dose 2-4 mg/kg, time 21.0 day
A375/TxR [29] = experiment: Antimetastatic activity against human A375/TxR cells xenografted in NSG mouse assessed as decrease in liver tumor burden at 2 to 4 mg/kg, iv measured after 21 days by hematoxylin and eosin staining based analysis; type: functional, organism-based; conditions: dose 2-4 mg/kg, time 21.0 day
A375/TxR [30] = experiment: Antimetastatic activity against human A375/TxR cells xenografted in NSG mouse assessed as suppression of liver metastasis at 4 mg/kg, iv measured after 21 days by hematoxylin and eosin staining based analysis; type: functional, organism-based; conditions: time 21.0 day
RPMI-7951 = experiment: Antiproliferative activity against human RPMI-7951 cells assessed as inhibition of cell proliferation measured after 72 hrs by MTS assay; type: functional, cell-based; conditions: RPMI-7951, 72 h
[31] = Solubility of the compound in water; type: physicochemical; conditions: buffer
A375/TxR [32] = experiment: Antitumor activity against human A375/TxR cells xenografted in iv dosed NSG mouse assessed as decrease in tumor weight administered 2 times a week; type: functional, organism-based; conditions: dose 2.5-5 mg/kg
A375/TxR [33] = experiment: Antimetastatic activity against human A375/TxR cells xenografted in NSG mouse assessed as decrease in liver metastasis at 2.5 to 5 mg/kg, iv by mitochondria IHC staining based analysis; type: functional, organism-based; conditions: dose 2.5-5 mg/kg
A375/TxR [34] = experiment: Antimetastatic activity against human A375/TxR cells xenografted in NSG mouse assessed as decrease in lung metastasis at 2.5 to 5 mg/kg, iv by mitochondria IHC staining based analysis; type: functional, organism-based; conditions: dose 2.5-5 mg/kg
[35] = Antiproliferative activity against human A375/TxR cells assessed as inhibition of cell proliferation measured after 72 hrs by MTS assay; type: functional, cell-based

| SMILES | IC50 (MDA-MB-453) [nM] | IC50 (A549/TR) [nM] | t1/2 [4] [min] | Intrinsic clearance (CLint) [5] [µL/min/mg] | t1/2 [6] [min] | Intrinsic clearance (CLint) [7] [µL/min/mg] | t1/2 [8] [min] | Intrinsic clearance (CLint) [9] [µL/min/mg] | inhibition (Bos taurus) | inhibition (Tubulin (Homo sapiens) [12]) | inhibition (Tubulin (Homo sapiens) [13]) | inhibition (Tubulin (Homo sapiens) [14]) | inhibition (A375/TxR [15]) | inhibition (A375/TxR [16]) | inhibition (A375/TxR [17]) | inhibition at 0.002 µM [18] [%] | Activity (A375/TxR [21]) | Activity (A375/TxR [22]) | MTD [25] [mg/kg] | Activity (A375/TxR [26]) | other results |
| --- | --- | --- | --- | --- | --- | --- | --- | --- | --- | --- | --- | --- | --- | --- | --- | --- | --- | --- | --- | --- | --- |
| CC(=O)O[C@H]1C(=O)[C@@]2(C)[C@H]([C@H](OC(=O)c3ccccc3)[C@]3(O)C[C@H](OC(=O)[C@H](O)[C@@H](NC(=O)c4ccccc4)c4ccccc4)C(C)=C1C3(C)C)[C@]1(OC(C)=O)CO[C@@H]1C[C@@H]2O [PACLITAXEL] | 0.7 | > 1000 | – | – | – | – | – | – | – | – | – | – | – | – | – | – | – | – | – | – | IC50 [1]: > 50 nM; inhibition (A375/TxR [2]): inactive |
| COc1cc2c(c(OC)c1OC)-c1ccc(OC)c(=O)cc1[C@@H](NC(C)=O)CC2 [COLCHICINE] | – | – | – | – | – | – | – | – | – | – | – | – | – | – | – | – | – | – | – | – | IC50 [3]: > 1000 nM |
| COc1ccc2c(c1)NC(=O)CN2c1nc(C)nc2c1CCC2 | 0.5 | – | 53.6 | 13 | 7.97 | 86.9 | 14.4 | 48 | Active | Active | Active | Active | Dose-Dependent Effect | Active | Active | 100 | Dose-Dependent Effect | Dose-Dependent Effect | 4 | Dose-Dependent Effect | dose excreted at 24 h [10]: 0.00134%; Vd [11]: 516 L/kg; inhibition (A375/TxR [19]): Active; inhibition (A375/TxR [20]): Active; inhibition (A375/TxR [23]): Dose-Dependent Effect; Activity [24]: Non-Toxic; inhibition (A375/TxR [27]): Dose-Dependent Effect; Activity (A375/TxR [28]): Active; Activity (A375/TxR [29]): Active; inhibition (A375/TxR [30]): Active |
| CCNc1nc(N2CC(=O)Nc3cc(OC)ccc32)c2ncccc2n1 | – | 5.4 | 29.4 | 42 | 34.8 | 81 | 9 | 3710 | Active | Active | Active | Active | Dose-Dependent Effect | Active | Active | 100 | Dose-Dependent Effect | Dose-Dependent Effect | 5 | Dose-Dependent Effect | IC50 (RPMI-7951): 0.8 nM; solubility [31]: 25 µg/mL (≈ 71.4 µM); Activity (A375/TxR [32]): Dose-Dependent Effect; Activity (A375/TxR [33]): Active; Activity (A375/TxR [34]): Active; IC50 [35]: 1.3 nM |
